{"source": "patent US20050137259A1", "about": "“Insulin secretion potentiator” (Use- Techno Corporation, priority 2003, published 2005)", "format_in_all_cases": "in vivo, human", "key": {"[1]": {"tested_on": "borderline diabetic patients", "experiment": "Glucose tolerance test (75 g glucose), blood insulin level (IRI), double-blind crossover", "conditions": "10 mg oral, 31 borderline diabetic patients, p<0.05", "description": "A glucose tolerance test was performed after administration of corosolic acid or a placebo, in a double-blind crossover manner, and the blood insulin level (IRI: immunoreactive insulin) was assayed.\n(§1) First, 31 borderline diabetic patients as test subjects were orally administered corosolic acid (10 mg, >99% purity) or a placebo, and blood was sampled immediately thereafter with the blood insulin level at that time designated as the value at 0 minutes. Immediately after blood sampling, 75 g of glucose was orally administered to each test subject to start a glucose tolerance test, and blood was sampled after periods of 30 minutes, 60 minutes, 90 minutes, 120 minutes and 180 minutes for measurement of the blood insulin level.\nFIG. 1 is a graph showing the blood insulin levels during the glucose tolerance test. The horizontal axis represents time (min) after start of the glucose tolerance test, and the vertical axis represents IRI (μU/mL). In the graph, (a) is a case with administration of corosolic acid and (b) is a case with administration of the placebo."}, "[2]": {"tested_on": "borderline diabetic patients", "experiment": "Glucose tolerance test (75 g glucose), blood glucose level (plasma glucose concentration), double-blind crossover", "conditions": "10 mg oral, 35 borderline diabetic patients, p<0.05", "description": "The following test was conducted to confirm that corosolic acid has a hypoglycemic effect. A glucose tolerance test was performed after administration of corosolic acid, banaba extract or a placebo, in a double-blind crossover manner, and the blood glucose level (plasma glucose concentration) was assayed.\nas §1, with “35” for “31”, “purity), banaba extract (trade name: COROSOLIA M, product of Use Techno Corporation; administered at 10 mg of corosolic acid)” for “purity)”, “glucose” for “insulin”\nFIG. 2 is a graph showing blood glucose levels during the glucose tolerance test. The horizontal axis represents time (min) after start of the glucose tolerance test, and the vertical axis represents plasma glucose concentration (mg/dL). In the graph, (c) is a case with administration of corosolic acid, (d) is a case with administration of banaba leaf extract and (e) is a case with administration of the placebo."}, "[3]": {"tested_on": "borderline diabetic patients", "experiment": "Blood glucose and blood insulin levels after administration in the absence of glucose load (fasted), crossover double-blind", "conditions": "single 10 mg dose; for blood glucose level (G) / blood insulin level (I): fasted, no glucose load; for blood insulin level (I): unit assumed", "description": "Three borderline diabetic patients (person, person and person) were instructed to fast from 8:00 pm (to ensure absence of glucose load), and were administered a placebo once or the test agent (corosolic acid) once at 9:00 am on the following day, after which the changes in blood glucose level and blood insulin level were measured. The participants were given absolutely no information regarding placebo or test agent (crossover, double-blind). The corosolic acid was administered in a single 10 mg dose, and each test was conducted twice.\nFIG. 3 is a graph showing changes in blood glucose levels with administration of corosolic acid and a placebo in the absence of a glucose load, and FIG. 4 is a graph showing changes in blood insulin levels with administration of corosolic acid and a placebo in the absence of a glucose load."}, "[4]": {"conditions": "120 minutes after start of glucose tolerance test"}}, "data": [{"smiles": "C[C@H]1[C@H](C)CC[C@]2(C(=O)O)CC[C@]3(C)C(=CC[C@@H]4[C@@]5(C)C[C@@H](O)[C@H](O)C(C)(C)[C@@H]5CC[C@]43C)[C@H]12", "note": "[corosolic acid]", "values": [{"measurement": "blood insulin level compared to placebo", "setting": "[1]; 30 minutes after start of glucose tolerance test", "value": "significant increase"}, {"measurement": "blood insulin level compared to placebo", "setting": "[1]; [4]", "value": "significant drop"}, {"measurement": "blood glucose level compared to placebo", "setting": "[2]; 90 minutes after start of glucose tolerance test", "value": "significant decrease"}, {"measurement": "blood glucose level compared to placebo", "setting": "[2]; [4]", "value": "significant decrease"}, {"measurement": "blood glucose levels, corosolic acid versus placebo", "setting": "[3]; absence of glucose load, FIG. 3", "value": "no significant difference"}, {"measurement": "blood insulin levels, corosolic acid versus placebo", "setting": "[3]; absence of glucose load, FIG. 4", "value": "no significant difference"}, {"measurement": "blood glucose level (G)", "setting": "[3]; participant A, after 0 min", "value": 110, "unit": "mg/dL"}, {"measurement": "blood insulin level (I)", "setting": "[3]; participant A, after 0 min", "value": 9, "unit": "µU/mL"}, {"measurement": "blood glucose level (G)", "setting": "[3]; participant A, after 30 min", "value": 104, "unit": "mg/dL"}, {"measurement": "blood insulin level (I)", "setting": "[3]; participant A, after 30 min", "value": 6.9, "unit": "µU/mL"}, {"measurement": "blood glucose level (G)", "setting": "[3]; participant A, after 60 min", "value": 107, "unit": "mg/dL"}, {"measurement": "blood insulin level (I)", "setting": "[3]; participant A, after 60 min", "value": 6.6, "unit": "µU/mL"}, {"measurement": "blood glucose level (G)", "setting": "[3]; participant A, after 90 min", "value": 104, "unit": "mg/dL"}, {"measurement": "blood insulin level (I)", "setting": "[3]; participant A, after 90 min", "value": 5.9, "unit": "µU/mL"}, {"measurement": "blood glucose level (G)", "setting": "[3]; participant A, after 120 min", "value": 104, "unit": "mg/dL"}, {"measurement": "blood insulin level (I)", "setting": "[3]; participant A, after 120 min", "value": 6.6, "unit": "µU/mL"}, {"measurement": "blood glucose level (G)", "setting": "[3]; participant A, after 180 min", "value": 102, "unit": "mg/dL"}, {"measurement": "blood insulin level (I)", "setting": "[3]; participant A, after 180 min", "value": 5.1, "unit": "µU/mL"}, {"measurement": "blood glucose level (G)", "setting": "[3]; participant B, after 0 min", "value": 144, "unit": "mg/dL"}, {"measurement": "blood insulin level (I)", "setting": "[3]; participant B, after 0 min", "value": 2.5, "unit": "µU/mL"}, {"measurement": "blood glucose level (G)", "setting": "[3]; participant B, after 30 min", "value": 143, "unit": "mg/dL"}, {"measurement": "blood insulin level (I)", "setting": "[3]; participant B, after 30 min", "value": 2.6, "unit": "µU/mL"}, {"measurement": "blood glucose level (G)", "setting": "[3]; participant B, after 60 min", "value": 147, "unit": "mg/dL"}, {"measurement": "blood insulin level (I)", "setting": "[3]; participant B, after 60 min", "value": 3, "unit": "µU/mL"}, {"measurement": "blood glucose level (G)", "setting": "[3]; participant B, after 90 min", "value": 149, "unit": "mg/dL"}, {"measurement": "blood insulin level (I)", "setting": "[3]; participant B, after 90 min", "value": 2, "unit": "µU/mL"}, {"measurement": "blood glucose level (G)", "setting": "[3]; participant B, after 120 min", "value": 150, "unit": "mg/dL"}, {"measurement": "blood insulin level (I)", "setting": "[3]; participant B, after 120 min", "value": 3.4, "unit": "µU/mL"}, {"measurement": "blood glucose level (G)", "setting": "[3]; participant B, after 180 min", "value": 146, "unit": "mg/dL"}, {"measurement": "blood insulin level (I)", "setting": "[3]; participant B, after 180 min", "value": 2.4, "unit": "µU/mL"}, {"measurement": "blood glucose level (G)", "setting": "[3]; participant C, after 0 min", "value": 90, "unit": "mg/dL"}, {"measurement": "blood insulin level (I)", "setting": "[3]; participant C, after 0 min", "value": 4.5, "unit": "µU/mL"}, {"measurement": "blood glucose level (G)", "setting": "[3]; participant C, after 30 min", "value": 90, "unit": "mg/dL"}, {"measurement": "blood insulin level (I)", "setting": "[3]; participant C, after 30 min", "value": 4.1, "unit": "µU/mL"}, {"measurement": "blood glucose level (G)", "setting": "[3]; participant C, after 60 min", "value": 88, "unit": "mg/dL"}, {"measurement": "blood insulin level (I)", "setting": "[3]; participant C, after 60 min", "value": 3.9, "unit": "µU/mL"}, {"measurement": "blood glucose level (G)", "setting": "[3]; participant C, after 90 min", "value": 86, "unit": "mg/dL"}, {"measurement": "blood insulin level (I)", "setting": "[3]; participant C, after 90 min", "value": 4.9, "unit": "µU/mL"}, {"measurement": "blood glucose level (G)", "setting": "[3]; participant C, after 120 min", "value": 86, "unit": "mg/dL"}, {"measurement": "blood insulin level (I)", "setting": "[3]; participant C, after 120 min", "value": 4, "unit": "µU/mL"}, {"measurement": "blood glucose level (G)", "setting": "[3]; participant C, after 180 min", "value": 81, "unit": "mg/dL"}, {"measurement": "blood insulin level (I)", "setting": "[3]; participant C, after 180 min", "value": 4, "unit": "µU/mL"}]}]}
